Results published in US4241063A, “Purine derivatives and their use as bronchodilators” (Bristol-Myers Company, priority 1979, dated 1980).
≈ marks a conversion by molar mass, not a printed value. Read-outs that look alike come from different tables or passages of the source.

Experiments:
[1] = system: Arterial blood pressure (ABP); test: In vivo hypotensive activity: arterial blood pressure (ABP) in anesthetized guinea pig
Experimental: (§1) The trachea of anesthetized guinea pig was cannulated and the ITP recorded on a polygraph under artificial ventilation. Arterial blood pressure (ABP; reflecting hypotensive activity) was also measured during the experiment. Either intravenous or intraduodenal routes of administration are used. […] The ratio of hypotensive ED20 /bronchodilating ED50 reflects an assessment of the separation of desirable bronchodilator activity from undesirable cardiovascular (hypotensive) effect in the compounds.

[2] = system: Tracheal chains of guinea pig; test: In vitro bronchodilator activity (guinea pig tracheal chain relaxation, Magnus method); assay type: cell-based; conditions: Cavia porcellus, read-out: EC50 (concentration producing a relaxation which is 50% of the maximum response to 0.1 mcg./ml. of isoproterenol), relative to maximum response to 0.1 mcg./ml. isoproterenol
Experimental: Tracheal chains of guinea pig were prepared by the method of A. Akcasu, Arch. Int. Pharmacodyn. […] The response to each test compound was recorded by the Magnus method and expressed as a percentage of the maximum response obtained with 0.1 mcg./ml. of isoproterenol prior to each experiment.

[3] = system: intratracheal pressure (ITP) in the guinea pig; test: In vivo bronchodilator activity: decrease in intratracheal pressure (ITP) in anesthetized guinea pig; conditions: for ED50: Cavia porcellus, read-out: ITP ED50 (dose resulting in a 50% decrease in intratracheal pressure)
Experimental: as §1

SMILES	ABP ED20 (dose which reduces arterial blood pressure by 20%) ([1]; intravenous) [mg/kg]	EC50 [2] [µg/mL]	ED50 ([3]; intravenous) [mg/kg]	ED50 ([3]; intraduodenal) [mg/kg]	Ratio ABP/ITP (hypotensive ED20/bronchodilating ED50) ([3]; intraduodenal)	Ratio ABP/ITP (hypotensive ED20/bronchodilating ED50) ([3]; intravenous)	ABP ED20 (dose which reduces arterial blood pressure by 20%) ([1]; intraduodenal) [mg/kg]
Cn1c(=O)c2[nH]cnc2n(C)c1=O [Aminophylline, reference compound]	1.4						
Nc1nc(Cl)nc2c1ncn2C1CCCCO1 (centres unmarked) [Example 1, 2-Chloro-9-(tetrahydropyran-2-yl)-9H-adenine]	> 1	0.45 (≈ 1.77 µM)	0.23				
COc1nc(N)c2ncn(C3CCCCO3)c2n1 (centres unmarked) [Example 2, 2-Methoxy-9-(tetrahydropyran-2-yl)-9H-adenine]	> 1	> 3	2.2				
CCCOc1nc(N)c2ncn(C3CCCCO3)c2n1 (centres unmarked) [Example 3, 2-n-Propoxy-9-(tetrahydropyran-2-yl)-9H-adenine]	1.9	0.17 (≈ 0.613 µM)	0.26	1.4	9.6	7.3	13.5
